The source made the active and inactive calls.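 How the source made its calls: active means PP5 phosphatase activity cut by at least half at the top 100 µM dose; inactive means less than half inhibition at 100 µM.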
Molecular target: Serine/threonine-protein phosphatase 5 (Homo sapiens) (UniProt P53041)
Assay: inhibitors of PP5c catalytic activity – biochemical, OMFP substrate, fluorescence, round 5, 1 µM low dose, late-stage follow-up (AID 624448)
Settings: purified PP5c, OMFP dephosphorylation

Serine/threonine-protein phosphatase 5 (Homo sapiens), sequence (P53041 whole entry, looked up): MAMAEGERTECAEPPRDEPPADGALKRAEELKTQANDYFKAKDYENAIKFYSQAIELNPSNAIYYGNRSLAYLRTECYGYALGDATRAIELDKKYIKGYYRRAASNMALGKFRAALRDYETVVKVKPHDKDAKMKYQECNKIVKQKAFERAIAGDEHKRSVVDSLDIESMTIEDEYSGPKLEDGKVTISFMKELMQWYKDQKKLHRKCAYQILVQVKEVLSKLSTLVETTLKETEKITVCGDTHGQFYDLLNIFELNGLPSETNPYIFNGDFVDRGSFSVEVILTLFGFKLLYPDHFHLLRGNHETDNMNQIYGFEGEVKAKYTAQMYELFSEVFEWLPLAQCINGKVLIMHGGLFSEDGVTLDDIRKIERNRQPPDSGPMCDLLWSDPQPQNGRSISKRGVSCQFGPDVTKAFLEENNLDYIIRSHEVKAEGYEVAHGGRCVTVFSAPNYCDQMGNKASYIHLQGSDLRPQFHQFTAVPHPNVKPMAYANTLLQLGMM

Row | SMILES | IC50
1 | O=C(O)c1cn(Cc2ccccc2)nn1 | > 100 µM (inactive)
2 | Cc1n[nH]nc1C(=O)O | > 100 µM (inactive)
3 | O=C(O)c1ncn[nH]1 | > 100 µM (inactive)
4 | COC(=O)c1n[nH]nc1-c1ccccc1 | > 100 µM (inactive)
5 | O=C(O)c1nnn(-c2ccccc2)c1-c1ccccc1 | > 100 µM (inactive)
6 | O=C(O)c1nn(Cc2ccccc2)nc1Cl | > 100 µM (inactive)
7 | O=C(O)c1cn[nH]c1-c1ccccc1 | > 100 µM (inactive)
8 | O=C(O)c1cn[nH]n1 | > 100 µM (inactive)

— PubChem BioAssay AID624448 (The Scripps Research Institute Molecular Screening Center, 2012)
